This is an account of results in US9487511B2, “Cyclopropanamine compound and use thereof” (Takeda Pharmaceutical Company Limited, priority 2014, dated 2016).

Each structure is given as a SMILES string. Structures can show the parent of a compound that is named as a salt. Where two headings read alike, the source gives them in different places. A value given as a limit tells only on which side of the number the result lay.

Data set [1] can be described thus: Evaluation of blood cell number in mouse. It is filed as in vivo. As to conditions: male ICR mice, oral, repeated 7 or 9 days. Here is the method:
All compounds were repeatedly administered to the mice at a dose of 1 mg/kg, 10 mg/kg or 100 mg/kg (body weight) for 7 or 9 days. One day after the final administration of the compound, the whole blood was collected.
Using Sysmex XT-1800i (Sysmex Corporation), the white blood cell number, red blood cell number, and platelet number in the collected whole blood per unit volume were measured. The influence of each compound on each blood cell number was determined by calculating the number with the mean of each blood cell number of the mouse without administration of the compound (0 mg/kg group), and the mean of each blood cell number in the whole blood of a mouse with the administration of the compound.

Data set [2] can be described thus: Evaluation of hippocampal distribution in mouse. It is filed as in vivo. As to conditions: male, ICR, mouse, po, 10 mg/kg, male ICR mice, 10 mg/kg oral, 1 h after administration.
For another data set, the target named is human LSD1(172-833) (Homo sapiens (Human), UniProt O60341). Briefly: Measurement of LSD1 inhibitory activity (time-resolved fluorescence, biotin-histone H3 mono methylated K4 peptide).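 Also: after the compound–enzyme step, substrate reaction 5 min at room temperature in Tris-HCl pH 8.0 with BSA and DTT, halted by 2-PCPA, detected with europium anti-histone H3 antibody plus Streptavidin-XL665.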 As to conditions: 60 min preincubation with enzyme at room temperature. It is filed as biochemical.
For a further data set, the target named is MAO-A enzyme (Homo sapiens (Human), UniProt P21397). Briefly: Measurement of MAO-A inhibitory activity (MAO-Glo Assay). It is filed as biochemical.
The target of the next data set is MAO-B enzyme (Homo sapiens (Human), UniProt P27338). Nature of the data set: Measurement of MAO-B inhibitory activity (MAO-Glo Assay). It is filed as biochemical.
Sequence of MAO-B enzyme (P27338 whole entry): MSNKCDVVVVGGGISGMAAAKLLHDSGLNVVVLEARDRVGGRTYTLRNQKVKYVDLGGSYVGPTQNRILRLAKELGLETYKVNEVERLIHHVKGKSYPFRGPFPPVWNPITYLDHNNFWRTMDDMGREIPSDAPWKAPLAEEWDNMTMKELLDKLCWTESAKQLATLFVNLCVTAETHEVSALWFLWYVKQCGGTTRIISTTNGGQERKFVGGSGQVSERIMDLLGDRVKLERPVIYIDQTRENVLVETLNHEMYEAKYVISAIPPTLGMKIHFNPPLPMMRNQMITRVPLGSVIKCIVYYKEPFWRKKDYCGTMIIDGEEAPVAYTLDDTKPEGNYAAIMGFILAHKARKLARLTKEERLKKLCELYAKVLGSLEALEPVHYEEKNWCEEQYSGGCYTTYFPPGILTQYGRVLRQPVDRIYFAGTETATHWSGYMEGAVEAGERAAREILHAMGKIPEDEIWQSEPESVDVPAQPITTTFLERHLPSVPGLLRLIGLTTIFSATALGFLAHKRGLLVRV

Sequence of MAO-A enzyme (P21397 whole entry): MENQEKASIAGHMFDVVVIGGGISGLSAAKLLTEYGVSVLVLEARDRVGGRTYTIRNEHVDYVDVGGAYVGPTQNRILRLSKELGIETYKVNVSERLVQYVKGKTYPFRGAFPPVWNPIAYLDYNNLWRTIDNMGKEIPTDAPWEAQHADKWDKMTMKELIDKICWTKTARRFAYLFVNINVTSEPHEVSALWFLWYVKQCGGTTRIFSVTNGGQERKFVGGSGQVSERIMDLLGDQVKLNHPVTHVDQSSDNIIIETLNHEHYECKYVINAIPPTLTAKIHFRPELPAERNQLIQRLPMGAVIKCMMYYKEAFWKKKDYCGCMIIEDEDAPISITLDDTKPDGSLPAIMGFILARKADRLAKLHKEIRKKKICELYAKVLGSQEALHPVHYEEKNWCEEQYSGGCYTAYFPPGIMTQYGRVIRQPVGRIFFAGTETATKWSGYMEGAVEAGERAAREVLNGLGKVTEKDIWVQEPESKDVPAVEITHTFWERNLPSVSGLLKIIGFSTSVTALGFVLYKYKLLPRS
Procedure for MAO-A enzyme: The MAO-A inhibitory activity evaluation described below followed the protocol of MAO-Glo (registered trademark) Assay of Promega KK.
A test compound dissolved in DMSO was added to a reaction solution (100 mM HEPES (pH 7.5), 5% glycerol) containing MAO-A enzyme (Sigma-Aldrich Co. LLC.), and the mixture was reacted at room temperature for 15 min. MAO substrate (Promega KK) was added to start the reaction. After reaction at room temperature for 60 min, Luciferine detection reagent (Promega KK) was added to terminate the reaction. After reaction at room temperature for 20 min with stirring, the luminescence was measured by Envision (PerkinElmer). The MAO-A inhibitory rate (%) of the test compound was calculated by the following formula. inhibitory rate (%)=(1−(test compound count−blank)÷(control−blank))×100
The count of the MAO-A enzyme reaction mixture under compound non-addition conditions is indicated as control, and the count under compound non-addition and MAO-A enzyme non-addition conditions is indicated as blank.
Procedure for MAO-B enzyme: The MAO-B inhibitory activity evaluation described below followed the protocol of MAO-Glo (registered trademark) Assay of Promega KK.
A test compound dissolved in DMSO was added to a reaction solution (100 mM HEPES (pH 7.5), 5% glycerol, 10% DMSO) containing MAO-B enzyme (Sigma-Aldrich Co. LLC.), and the mixture was reacted at room temperature for 15 min. MAO substrate (Promega KK) was added to start the reaction. After reaction at room temperature for 60 min, Luciferine detection reagent (Promega KK) (50 μL) was added to terminate the reaction. After reaction at room temperature for 20 min with stirring, the luminescence was measured by Envision (PerkinElmer). The MAO-B inhibitory rate (%) of the test compound was calculated by the following formula. inhibitory rate (%)=(1−(test compound count−blank)÷(control−blank))×100
The count of the MAO-B enzyme reaction mixture under compound non-addition conditions is indicated as control, and the count under compound non-addition and MAO-B enzyme non-addition conditions is indicated as blank.
Procedure for human LSD1(172-833): A test compound dissolved in DMSO was added by to a reaction solution (50 mM Tris-HCl (pH 8.0), 0.1% BSA, 1 mM DTT) containing LSD1 enzyme, and the mixture was reacted at room temperature for 60 min. […] After reaction at room temperature for 5 min, 2-PCPA solution was added to terminate the reaction. A detection solution (800 mM potassium fluoride, 0.1% BSA) containing europium-labeled anti-histone H3 antibody (Wako Pure Chemical Industries, Ltd.) and Streptavidin-XL665 (Cisbio) was further added, and the mixture was left standing for 60 min. […] The LSD1 inhibitory rate (%) of the test compound was calculated by the following formula. inhibitory rate (%)=(1−(test compound count−blank)÷(control−blank))×100
The count of the LSD1 enzyme reaction mixture under compound non-addition conditions is indicated as control, and the count under compound non-addition and LSD1 enzyme non-addition conditions is indicated as blank. A concentration necessary for achieving 50% inhibitory rate was taken as ICH value.

Regarding `Cc1nnc(NC(=O)c2cc([C@@H]3C[C@H]3NCC3CC3)cs2)s1` [Example 82, 4-((1S,2R)-2-((cyclopropylmethyl)amino)cyclopropyl)-N-(5-methyl-1,3,4-thiadiazol-2-yl)thiophene-2-carboxamide dihydrochloride], the “Platelets, Mean” value in data set [1] (1 mg/kg) was 1399 10^3 cells; in data set [1] (10 mg/kg) it was 1445 10^3 cells; in data set [1] (100 mg/kg), 1411 10^3 cells. The “Red blood cells, Mean” value in data set [1] (1 mg/kg) is 899 10^4 cells; in data set [1] (10 mg/kg), 926 10^4 cells; in data set [1] (100 mg/kg) it was 903 10^4 cells. In addition, the entries for the “White blood cells, Mean” value in data set [1] (1 mg/kg), in data set [1] (10 mg/kg) and in data set [1] (100 mg/kg) were 403 10 cells, 424 10 cells and 329 10 cells, respectively. Besides, the concentration at 1 h is 170 ng/g in data set [2] (hippocampus, read-out: Concentration Hippocampus, Mean) and 1330 ng/mL in data set [2] (plasma, read-out: Concentration Plasma, Mean).
With `Cc1ncc(NC(=O)c2csc([C@@H]3C[C@H]3NCC3CCOCC3)c2)s1` [Example 53, N-(2-methyl-1,3-thiazol-5-yl)-5-((1R,2R)-2-((tetrahydro-2H-pyran-4-ylmethyl)amino)cyclopropyl)thiophene-3-carboxamide dihydrochloride], the IC50 is less than 0.1 µM on human LSD1(172-833), 61 µM on MAO-A enzyme and 96 µM against MAO-B enzyme.
As to `O=C(NC1CCC(F)(F)CC1)c1csc([C@@H]2C[C@H]2NC2CCOCC2)c1` (relative stereo) [Example 31, N-(4,4-difluorocyclohexyl)-5-(trans-2-(tetrahydro-2H-pyran-4-ylamino)cyclopropyl)thiophene-3-carboxamide hydrochloride], the IC50 on human LSD1(172-833) was less than 0.1 µM; against MAO-A enzyme, greater than 100 µM; against MAO-B enzyme, greater than 100 µM.
With `Cc1c(NC(=O)c2csc([C@@H]3C[C@H]3NCC3CCOCC3)c2)cnn1C` [Example 55, N-(1,5-dimethyl-1H-pyrazol-4-yl)-5-((1R,2R)-2-((tetrahydro-2H-pyran-4-ylmethyl)amino)cyclopropyl)thiophene-3-carboxamide dihydrochloride], the IC50 on human LSD1(172-833) was less than 0.1 µM; against MAO-A enzyme, greater than 100 µM; against MAO-B enzyme, greater than 100 µM.
Regarding `Cc1nnc(NC(=O)c2cc([C@@H]3C[C@H]3NCC3CC3)sc2C)s1` (relative stereo) [Example 69, 5-(trans-2-((cyclopropylmethyl)amino)cyclopropyl)-2-methyl-N-(5-methyl-1,3,4-thiadiazol-2-yl)thiophene-3-carboxamide dihydrochloride], the IC50 at human LSD1(172-833) was less than 0.1 µM; against MAO-A enzyme, 33 µM; against MAO-B enzyme, greater than 100 µM.
On the same counts, the results for `O=C(NC1CCC(F)(F)CC1)c1cc2c(c([C@@H]3C[C@H]3NCC3CCOCC3)c1)OCC2` (relative stereo) [Example 12, N-(4,4-difluorocyclohexyl)-7-(trans-2-((tetrahydro-2H-pyran-4-ylmethyl)amino)cyclopropyl)-2,3-dihydro-1-benzofuran-5-carboxamide hydrochloride] are less than 0.1 µM, greater than 100 µM and greater than 100 µM.
On the same counts, the results for `CC(=O)N1CCC(N[C@@H]2C[C@H]2c2cc(C(=O)NC3CCC(F)(F)CC3)cs2)CC1` [Example 91, 5-((1R,2R)-2-((1-acetylpiperidin-4-yl)amino)cyclopropyl)-N-(4,4-difluorocyclohexyl)thiophene-3-carboxamide hydrochloride] are less than 0.1 µM, greater than 100 µM and greater than 100 µM.
On the same counts, the results for `Cc1nnc(NC(=O)c2csc([C@@H]3C[C@H]3NC3CCOCC3)c2)s1` [Example 49, N-(5-methyl-1,3,4-thiadiazol-2-yl)-5-((1R,2R)-2-(tetrahydro-2H-pyran-4-ylamino)cyclopropyl)thiophene-3-carboxamide hydrochloride] are less than 0.1 µM, greater than 100 µM and greater than 100 µM.
With `Cc1nnc(NC(=O)c2csc([C@@H]3C[C@H]3NC3CCN(C4CC4)CC3)c2)s1` [Example 48, 5-((1R,2R)-2-((1-cyclopropylpiperidin-4-yl)amino)cyclopropyl)-N-(5-methyl-1,3,4-thiadiazol-2-yl)thiophene-3-carboxamide dihydrochloride], the IC50 was less than 0.1 µM against human LSD1(172-833), 31 µM against MAO-A enzyme and greater than 100 µM on MAO-B enzyme.
Regarding `Cc1cc(NC(=O)c2csc([C@@H]3C[C@H]3NCC3CCOCC3)c2)no1` [Example 81, N-(5-methyl-1,2-oxazol-3-yl)-5-((1R,2R)-2-((tetrahydro-2H-pyran-4-ylmethyl)amino)cyclopropyl)thiophene-3-carboxamide hydrochloride], the IC50 is less than 0.1 µM against human LSD1(172-833), 36 µM against MAO-A enzyme and greater than 100 µM against MAO-B enzyme.
On the same counts, the results for `O=C(O)c1ccc(CN[C@@H]2C[C@H]2c2cc(C(=O)NC3CCC(F)(F)CC3)cs2)cc1` [Example 110, 4-((((1R,2R)-2-(4-((4,4-difluorocyclohexyl)carbamoyl)-2-thienyl)cyclopropyl)amino)methyl)benzoic acid] are less than 0.1 µM, 49 µM and greater than 100 µM.
On the same counts, the results for `Cc1nnc(NC(=O)c2csc([C@@H]3C[C@H]3NCC3CCN(CCC(=O)O)CC3)c2)s1` [Example 60, 3-(4-((((1R,2R)-2-(4-((5-methyl-1,3,4-thiadiazol-2-yl)carbamoyl)-2-thienyl)cyclopropyl)amino)methyl)piperidin-1-yl)propanoic acid trihydrochloride] are less than 0.1 µM, greater than 100 µM and greater than 100 µM.
Consider `O=C(NC1CCCC1)c1csc(C2CC2NC2CCOCC2)c1` (single isomer, unassigned) [Example 38, hydrochloride], for which the half-maximal inhibitory concentration (IC50) is less than 0.1 µM at human LSD1(172-833), greater than 100 µM at MAO-A enzyme and greater than 100 µM against MAO-B enzyme.
Regarding `O=C(NC1CCC(F)(F)CC1)c1csc([C@@H]2C[C@H]2NCC2CCOCC2)c1` (relative stereo) [Example 24, N-(4,4-difluorocyclohexyl)-5-(trans-2-((tetrahydro-2H-pyran-4-ylmethyl)amino)cyclopropyl)thiophene-3-carboxamide hydrochloride], the IC50 at human LSD1(172-833) was less than 0.1 µM; against MAO-A enzyme it was greater than 100 µM; on MAO-B enzyme, greater than 100 µM.
As to `Cn1cc(NC(=O)c2csc([C@@H]3C[C@H]3NC3CCC3)c2)cn1` (relative stereo) [Example 34, 5-(trans-2-(cyclobutylamino)cyclopropyl)-N-(1-methyl-1H-pyrazol-4-yl)thiophene-3-carboxamide hydrochloride], the concentration for half-maximal inhibition (IC50) at human LSD1(172-833) is less than 0.1 µM; at MAO-A enzyme, greater than 100 µM; against MAO-B enzyme, greater than 100 µM.
In the case of `Cc1nnc(NC(=O)c2csc(C3CC3NCC3CCOCC3)c2)s1` (single isomer, unassigned) [Example 40, dihydrochloride], the IC50 at human LSD1(172-833) was less than 0.1 µM; on MAO-A enzyme (dihydrochloride) it was greater than 100 µM; against MAO-B enzyme, greater than 100 µM.
For `O=C(NC1CCC(F)(F)CC1)c1csc([C@@H]2C[C@H]2NC2CCN(C(=O)C3CC3)CC2)c1` [Example 92, 5-((1R,2R)-2-((1-(cyclopropylcarbonyl)piperidin-4-yl)amino)cyclopropyl)-N-(4,4-difluorocyclohexyl)thiophene-3-carboxamide hydrochloride], the IC50 is less than 0.1 µM on human LSD1(172-833), greater than 100 µM against MAO-A enzyme and greater than 100 µM on MAO-B enzyme.
Turning to `NC1CCC(N[C@@H]2C[C@H]2c2cc(C(=O)NC3CCC(F)(F)CC3)cs2)CC1` (single isomer, unassigned) [Example 45, dihydrochloride], the IC50 is less than 0.1 µM at human LSD1(172-833), greater than 100 µM against MAO-A enzyme and greater than 100 µM against MAO-B enzyme.
For the molecule `O=C(O)c1ccc(CN2CCC(CN[C@@H]3C[C@H]3c3cc(C(=O)NC4CCC(F)(F)CC4)cs3)CC2)cc1` [Example 101, 4-((4-((((1R,2R)-2-(4-((4,4-difluorocyclohexyl)carbamoyl)-2-thienyl)cyclopropyl)amino)methyl)piperidin-1-yl)methyl)benzoic acid dihydrochloride], the IC50 at human LSD1(172-833) is less than 0.1 µM; against MAO-A enzyme it was greater than 100 µM; at MAO-B enzyme it was greater than 100 µM.
Turning to `N[C@H]1CC[C@H](N[C@@H]2C[C@H]2c2cc(C(=O)NC3CCC(F)(F)CC3)cs2)CC1` [Example 46, 5-((1R,2R)-2-(trans-(4-aminocyclohexyl)amino)cyclopropyl)-N-(4,4-difluorocyclohexyl)thiophene-3-carboxamide dihydrochloride], the results for the IC50 against human LSD1(172-833), on MAO-A enzyme and on MAO-B enzyme were less than 0.1 µM, greater than 100 µM and greater than 100 µM, respectively.
As to `O=C(NC1CCOCC1)c1csc([C@@H]2C[C@H]2NC2CCC(F)(F)CC2)c1` [Example 47, 5-((1R,2R)-2-((4,4-difluorocyclohexyl)amino)cyclopropyl)-N-(tetrahydro-2H-pyran-4-yl)thiophene-3-carboxamide hydrochloride], the figures for the IC50 on human LSD1(172-833), against MAO-A enzyme and against MAO-B enzyme were less than 0.1 µM, greater than 100 µM and greater than 100 µM, respectively.
